Measured values from patent publication US9611267B2, “Substituted tricyclic compounds as FGFR inhibitors” (Incyte Corporation, priority 2012, dated 2017).

Legend:
Assay type in all cases: biochemical
FGFR2 = FGFR2 (Homo sapiens (Human), UniProt P21802); experiment: FGFR enzymatic assay (FRET peptide phosphorylation), FGFR2; conditions: FGFR2 enzyme 0.01 nM, ATP 100 μM
How it was run: (§1)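 IC50 values were obtained from variable-slope sigmoidal dose-response fitting of a FRET read-out of peptide phosphorylation. The buffer, described for FGFR3, was 50 mM HEPES pH 7.5 with MgCl2, EGTA, Tween-20 and DTT.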

FGFR1 = FGFR1 (Homo sapiens (Human), UniProt P11362); experiment: FGFR enzymatic assay (FRET peptide phosphorylation), FGFR1; conditions: FGFR1 enzyme 0.02 nM, ATP 210 μM
Sequence of FGFR1 (P11362 22-822): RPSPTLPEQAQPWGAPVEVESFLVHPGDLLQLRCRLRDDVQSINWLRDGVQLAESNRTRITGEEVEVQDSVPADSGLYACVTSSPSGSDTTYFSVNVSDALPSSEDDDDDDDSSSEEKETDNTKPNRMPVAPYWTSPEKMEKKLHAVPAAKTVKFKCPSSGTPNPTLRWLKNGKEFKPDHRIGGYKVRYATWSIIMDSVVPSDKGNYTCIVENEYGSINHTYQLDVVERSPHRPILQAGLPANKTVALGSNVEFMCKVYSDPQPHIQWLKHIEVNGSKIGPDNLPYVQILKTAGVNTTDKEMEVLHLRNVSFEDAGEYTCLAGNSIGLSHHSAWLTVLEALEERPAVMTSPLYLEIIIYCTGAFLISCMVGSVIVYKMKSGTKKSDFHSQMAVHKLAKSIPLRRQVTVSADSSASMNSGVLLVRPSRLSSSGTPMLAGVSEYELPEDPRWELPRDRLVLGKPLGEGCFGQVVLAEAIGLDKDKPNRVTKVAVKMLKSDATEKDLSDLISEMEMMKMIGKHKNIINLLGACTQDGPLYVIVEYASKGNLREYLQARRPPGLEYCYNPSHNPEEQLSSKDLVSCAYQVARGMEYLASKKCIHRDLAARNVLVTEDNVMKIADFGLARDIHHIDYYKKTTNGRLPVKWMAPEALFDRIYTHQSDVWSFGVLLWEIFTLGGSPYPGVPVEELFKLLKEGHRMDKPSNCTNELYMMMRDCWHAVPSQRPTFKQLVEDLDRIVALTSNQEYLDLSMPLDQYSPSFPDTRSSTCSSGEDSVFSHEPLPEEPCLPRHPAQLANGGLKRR
How it was run: as §1

FGFR3 = FGFR3 (Homo sapiens (Human), UniProt P22607); experiment: FGFR enzymatic assay (FRET peptide phosphorylation), FGFR3; conditions: FGFR3 enzyme (Millipore), ATP 140 μM
Sequence of FGFR3 (P22607 23-806): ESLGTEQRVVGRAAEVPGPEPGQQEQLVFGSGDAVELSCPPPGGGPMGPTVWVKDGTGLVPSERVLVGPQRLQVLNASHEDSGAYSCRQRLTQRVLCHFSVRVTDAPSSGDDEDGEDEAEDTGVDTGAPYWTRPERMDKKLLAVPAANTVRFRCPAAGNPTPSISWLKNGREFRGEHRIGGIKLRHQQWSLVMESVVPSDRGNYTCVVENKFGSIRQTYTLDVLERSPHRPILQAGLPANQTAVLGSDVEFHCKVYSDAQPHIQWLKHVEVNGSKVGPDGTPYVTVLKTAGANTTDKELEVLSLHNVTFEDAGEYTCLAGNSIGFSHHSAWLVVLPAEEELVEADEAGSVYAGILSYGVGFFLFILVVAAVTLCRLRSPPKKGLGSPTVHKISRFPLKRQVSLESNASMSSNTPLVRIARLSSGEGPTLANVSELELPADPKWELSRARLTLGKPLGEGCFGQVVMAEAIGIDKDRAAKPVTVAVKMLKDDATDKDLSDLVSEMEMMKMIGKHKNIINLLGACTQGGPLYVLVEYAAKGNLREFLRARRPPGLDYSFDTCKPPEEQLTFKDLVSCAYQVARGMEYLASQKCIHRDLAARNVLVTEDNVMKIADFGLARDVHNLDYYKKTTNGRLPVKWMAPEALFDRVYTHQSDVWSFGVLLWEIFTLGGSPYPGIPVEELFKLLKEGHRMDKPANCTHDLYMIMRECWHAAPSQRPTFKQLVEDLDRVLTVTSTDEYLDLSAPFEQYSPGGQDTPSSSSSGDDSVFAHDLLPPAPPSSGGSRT
How it was run: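 After 5-10 min pre-incubation of FGFR3 with serially diluted compound in pH 7.5 HEPES/MgCl2/EGTA/DTT buffer, the reaction proceeded 1 hr at 25° C. Phosphorylated peptide was detected by FRET, and IC50 was fitted with a variable-slope sigmoid.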

Measured: IC50

Sequence of FGFR2 (P21802 22-821): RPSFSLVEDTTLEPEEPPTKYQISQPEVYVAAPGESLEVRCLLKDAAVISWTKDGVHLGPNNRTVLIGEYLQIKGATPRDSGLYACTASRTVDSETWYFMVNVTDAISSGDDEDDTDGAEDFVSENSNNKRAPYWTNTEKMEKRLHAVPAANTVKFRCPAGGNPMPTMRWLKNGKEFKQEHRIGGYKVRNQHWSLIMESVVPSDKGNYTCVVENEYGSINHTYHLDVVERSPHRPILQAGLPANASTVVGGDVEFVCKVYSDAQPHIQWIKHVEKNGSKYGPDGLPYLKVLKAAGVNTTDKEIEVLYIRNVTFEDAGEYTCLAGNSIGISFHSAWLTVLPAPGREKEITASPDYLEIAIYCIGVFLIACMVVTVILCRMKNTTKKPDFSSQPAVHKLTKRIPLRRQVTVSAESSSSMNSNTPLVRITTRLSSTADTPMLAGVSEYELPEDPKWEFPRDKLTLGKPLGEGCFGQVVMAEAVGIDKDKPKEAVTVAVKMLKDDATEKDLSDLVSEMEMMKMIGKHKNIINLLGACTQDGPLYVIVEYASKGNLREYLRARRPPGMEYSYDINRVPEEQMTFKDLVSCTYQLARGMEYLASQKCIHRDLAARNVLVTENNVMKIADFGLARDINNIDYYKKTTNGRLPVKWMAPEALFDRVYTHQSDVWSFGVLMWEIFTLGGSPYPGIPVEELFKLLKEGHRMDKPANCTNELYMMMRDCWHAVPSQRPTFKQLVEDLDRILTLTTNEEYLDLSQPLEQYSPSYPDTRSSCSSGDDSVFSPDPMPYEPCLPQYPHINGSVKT

COc1cc(OC)c(F)c(N2Cc3cnc4[nH]ccc4c3N(c3cccnc3)C2=O)c1F [Example 83, 3-(2,6-difluoro-3,5-dimethoxyphenyl)-1-pyridin-3-yl-1,3,4,7-tetrahydro-2H-pyrrolo[3′,2′:5,6]pyrido[4,3-d]pyrimidin-2-one]
< 100 nM: all assays above

COc1cc(OC)c(F)c(N2Cc3cnc4[nH]ccc4c3N(c3cccc(Cl)c3F)C2=O)c1F [Example 84, 1-(3-chloro-2-fluorophenyl)-3-(2,6-difluoro-3,5-dimethoxyphenyl)-1,3,4,7-tetrahydro-2H-pyrrolo[3′,2′:5,6]pyrido[4,3-d]pyrimidin-2-one]
< 100 nM: all assays above

COc1cc(OC)c(F)c(N2Cc3cnc4[nH]ncc4c3N(c3cnn(C)c3)C2=O)c1F [Example 85, 3-(2,6-difluoro-3,5-dimethoxyphenyl)-1-(1-methyl-1H-pyrazol-4-yl)-1,3,4,7-tetrahydro-2H-pyrazolo[4′,3′:5,6]pyrido[4,3-d]pyrimidin-2-one]
< 100 nM: all assays above

COc1cc(OC)c(F)c(N2Cc3cnc4[nH]ncc4c3N(Cc3ccccn3)C2=O)c1F [Example 86, 3-(2,6-difluoro-3,5-dimethoxyphenyl)-1-(pyridin-2-ylmethyl)-1,3,4,7-tetrahydro-2H-pyrazolo[4′,3′:5,6]pyrido[4,3-d]pyrimidin-2-one]
< 100 nM: all assays above

COc1cc(OC)c(F)c(N2Cc3cnc4[nH]ncc4c3N(C3CC3)C2=O)c1F [Example 87, 1-cyclopropyl-3-(2,6-difluoro-3,5-dimethoxyphenyl)-1,3,4,7-tetrahydro-2H-pyrazolo[4′,3′:5,6]pyrido[4,3-d]pyrimidin-2-one]
< 100 nM: all assays above

COc1cc(OC)c(F)c(N2Cc3cnc4[nH]ncc4c3N([C@H]3CCCOC3)C2=O)c1F [Example 88, 3-(2,6-difluoro-3,5-dimethoxyphenyl)-1-[(3S)-tetrahydro-2H-pyran-3-yl]-1,3,4,7-tetrahydro-2H-pyrazolo[4′,3′:5,6]pyrido[4,3-d]pyrimidin-2-one]
< 100 nM: all assays above

COc1cc(OC)c(F)c(N2Cc3cnc4[nH]ncc4c3N([C@H]3CCOC3)C2=O)c1F [Example 89, 3-(2,6-difluoro-3,5-dimethoxyphenyl)-1-[(3S)-tetrahydrofuran-3-yl]-1,3,4,7-tetrahydro-2H-pyrazolo[4′,3′:5,6]pyrido[4,3-d]pyrimidin-2-one]
< 100 nM: all assays above

COc1cc(OC)c(F)c(N2Cc3cnc4[nH]ncc4c3N([C@@H]3CCOC3)C2=O)c1F [Example 90, 3-(2,6-difluoro-3,5-dimethoxyphenyl)-1-[(3R)-tetrahydrofuran-3-yl]-1,3,4,7-tetrahydro-2H-pyrazolo[4′,3′:5,6]pyrido[4,3-d]pyrimidin-2-one]
< 100 nM: all assays above

COc1cc(OC)c(F)c(N2Cc3cnc4[nH]ncc4c3N(C(C)C)C2=O)c1F [Example 91, 3-(2,6-difluoro-3,5-dimethoxyphenyl)-1-isopropyl-1,3,4,7-tetrahydro-2H-pyrazolo[4′,3′:5,6]pyrido[4,3-d]pyrimidin-2-one]
< 100 nM: all assays above

COc1cc(OC)c(F)c(N2Cc3cnc4[nH]ncc4c3N(c3ccccc3OC(F)(F)F)C2=O)c1F [Example 92, 3-(2,6-difluoro-3,5-dimethoxyphenyl)-1-[2-(trifluoromethoxy)phenyl]-1,3,4,7-tetrahydro-2H-pyrazolo[4′,3′:5,6]pyrido[4,3-d]pyrimidin-2-one]
< 100 nM: all assays above

COc1cc(OC)c(F)c(N2Cc3cnc4[nH]ncc4c3N(c3cccc(C#N)c3)C2=O)c1F [Example 93, 3-[3-(2,6-difluoro-3,5-dimethoxyphenyl)-2-oxo-2,3,4,7-tetrahydro-1H-pyrazolo[4′,3′:5,6]pyrido[4,3-d]pyrimidin-1-yl]benzonitrile]
< 100 nM: all assays above

COc1cc(OC)c(F)c(N2Cc3cnc4[nH]ncc4c3N(c3cccnc3)C2=O)c1F [Example 94, 3-(2,6-difluoro-3,5-dimethoxyphenyl)-1-pyridin-3-yl-1,3,4,7-tetrahydro-2H-pyrazolo[4′,3′:5,6]pyrido[4,3-d]pyrimidin-2-one]
< 100 nM: all assays above

COc1cc(OC)c(F)c(N2Cc3cnc4[nH]ncc4c3N(c3nnn(C)n3)C2=O)c1F [Example 95, 3-(2,6-difluoro-3,5-dimethoxyphenyl)-1-(2-methyl-2H-tetrazol-5-yl)-1,3,4,7-tetrahydro-2H-pyrazolo[4′,3′:5,6]pyrido[4,3-d]pyrimidin-2-one]
< 100 nM: all assays above

COc1cc(OC)c(F)c(N2Cc3cnc4[nH]ncc4c3N(c3cccc4cccnc34)C2=O)c1F [Example 96, 3-(2,6-difluoro-3,5-dimethoxyphenyl)-1-quinolin-8-yl-1,3,4,7-tetrahydro-2H-pyrazolo[4′,3′:5,6]pyrido[4,3-d]pyrimidin-2-one]
< 100 nM: all assays above

COc1cc(OC)c(F)c(N2Cc3cnc4[nH]nc(C)c4c3N(C3CC3)C2=O)c1F [Example 97, 1-cyclopropyl-3-(2,6-difluoro-3,5-dimethoxyphenyl)-9-methyl-1,3,4,7-tetrahydro-2H-pyrazolo[4′,3′:5,6]pyrido[4,3-d]pyrimidin-2-one]
< 100 nM: all assays above

CCN1C(=O)N(c2c(F)c(OC)cc(OC)c2F)Cc2cnc3[nH]nc(C)c3c21 [Example 98, 3-(2,6-difluoro-3,5-dimethoxyphenyl)-1-ethyl-9-methyl-1,3,4,7-tetrahydro-2H-pyrazolo[4′,3′:5,6]pyrido[4,3-d]pyrimidin-2-one]
< 100 nM: all assays above

COc1cc(OC)c(F)c(N2Cc3cnc4[nH]ncc4c3NC2=O)c1F [Example 99, 3-(2,6-difluoro-3,5-dimethoxyphenyl)-1,3,4,7-tetrahydro-2H-pyrazolo[4′,3′:5,6]pyrido[4,3-d]pyrimidin-2-one]
< 100 nM: all assays above

COc1cc(OC)c(F)c(N2Cc3cnc4[nH]nc(CCN5CCOCC5)c4c3N(C)C2=O)c1F [Example 100, 3-(2,6-difluoro-3,5-dimethoxyphenyl)-1-methyl-9-(2-morpholin-4-ylethyl)-1,3,4,7-tetrahydro-2H-pyrazolo[4′,3′:5,6]pyrido[4,3-d]pyrimidin-2-one]
< 100 nM: all assays above

COc1cc(OC)c(Cl)c(N2Cc3cnc4[nH]ncc4c3N(C3CC3)C2=O)c1F [Example 101, 3-(2-chloro-6-fluoro-3,5-dimethoxyphenyl)-1-cyclopropyl-1,3,4,7-tetrahydro-2H-pyrazolo[4′,3′:5,6]pyrido[4,3-d]pyrimidin-2-one]
< 100 nM: all assays above

COc1cc(OC)c(Cl)c(N2Cc3cnc4[nH]ncc4c3N(C3CCC3)C2=O)c1F [Example 102, 3-(2-chloro-6-fluoro-3,5-dimethoxyphenyl)-1-cyclobutyl-1,3,4,7-tetrahydro-2H-pyrazolo[4′,3′:5,6]pyrido[4,3-d]pyrimidin-2-one]
< 100 nM: all assays above

COc1cc(OC)c(F)c(N2Cc3cnc4[nH]ccc4c3NC2=O)c1F [Example 103, 3-(2,6-difluoro-3,5-dimethoxyphenyl)-1,3,4,7-tetrahydro-2H-pyrrolo[3′,2′:5,6]pyrido[4,3-d]pyrimidin-2-one]
< 100 nM: all assays above

COc1cc(OC)c(F)c(N2Cc3cnc4[nH]cc(C)c4c3N(C)C2=O)c1F [Example 104, 3-(2,6-difluoro-3,5-dimethoxyphenyl)-1,9-dimethyl-1,3,4,7-tetrahydro-2H-pyrrolo[3′,2′:5,6]pyrido[4,3-d]pyrimidin-2-one]
< 100 nM: all assays above

COc1cc(OC)c(F)c(N2Cc3cnc4[nH]cc(CC#N)c4c3N(C)C2=O)c1F [Example 105, [3-(2,6-difluoro-3,5-dimethoxyphenyl)-1-methyl-2-oxo-2,3,4,7-tetrahydro-1H-pyrrolo[3′,2′:5,6]pyrido[4,3-d]pyrimidin-9-yl]acetonitrile]
< 100 nM: all assays above
